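All cell lines were grown in 96-well plates and treated with compound for 48 hours. At the GI50, growth is halved.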 Active and inactive are the calls of the source. No stated cut-off is given here; in the data, active = GI50 up to about 1.1 µM and inactive = higher.
Key:
Experiment in all cases: growth of human tumour cells (NCI), 48 h
SR = system: SR
SF-268 = system: SF-268
OVCAR-3 = system: OVCAR-3
A549 = system: A549
NCI-H522 = system: NCI-H522
786-0 = system: 786-0
NCI-H226 = system: NCI-H226
UO-31 = system: UO-31
OVCAR-4 = system: OVCAR-4
UACC-62 = system: UACC-62
HOP-92 = system: HOP-92
SK-MEL-5 = system: SK-MEL-5
SW-620 = system: SW-620
MDA-MB-231 = system: MDA-MB-231
A498 = system: A498
CAKI-1 = system: CAKI-1
SNB-19 = system: SNB-19
NCI-H460 = system: NCI-H460
HCT-116 = system: HCT-116
KM12 = system: KM12

SMILES	GI50 (SR)	GI50 (SF-268)	GI50 (OVCAR-3)	GI50 (A549)	GI50 (NCI-H522)	GI50 (786-0)	GI50 (NCI-H226)	GI50 (UO-31)	GI50 (OVCAR-4)	GI50 (UACC-62)	GI50 (HOP-92)	GI50 (SK-MEL-5)	GI50 (SW-620)	GI50 (MDA-MB-231)	GI50 (A498)	GI50 (CAKI-1)	GI50 (SNB-19)	GI50 (NCI-H460)	GI50 (HCT-116)	GI50 (KM12)
O=C(/C=C/c1ccccc1)Oc1ccc(C(=O)/C=C/c2ccccc2)cc1	2.1 µM (inactive)	12.3 µM (inactive)	10.3 µM (inactive)	25.1 µM (inactive)	11.4 µM (inactive)	6.53 µM (inactive)	34.4 µM (inactive)	10.4 µM (inactive)	25.8 µM (inactive)	12.9 µM (inactive)	17.1 µM (inactive)	16.9 µM (inactive)	8.75 µM (inactive)	13.2 µM (inactive)	> 10 µM (inactive)	13.1 µM (inactive)	15.1 µM (inactive)	8.87 µM (inactive)	9.64 µM (inactive)	5.4 µM (inactive)
Cc1cc(C)c2c(O)cc(-c3cccc4ccccc34)nc2n1	0.342 µM (active)	2.58 µM (inactive)	0.263 µM (active)	0.867 µM (active)	0.373 µM (active)	0.612 µM (active)	1.44 µM (inactive)	3.09 µM (inactive)	4.25 µM (inactive)	0.349 µM (active)	0.361 µM (active)	0.381 µM (active)	0.448 µM (active)	2.22 µM (inactive)	0.474 µM (active)	2.07 µM (inactive)	1.12 µM (inactive)	0.653 µM (active)	0.403 µM (active)	0.406 µM (active)
N#Cc1c(N2CCCC2)ncn(-c2ccccc2)c1=S	> 100 µM (inactive)	> 100 µM (inactive)	> 100 µM (inactive)	> 100 µM (inactive)	> 100 µM (inactive)	> 100 µM (inactive)	> 100 µM (inactive)	> 100 µM (inactive)	> 100 µM (inactive)	19.5 µM (inactive)	> 100 µM (inactive)	> 100 µM (inactive)	> 100 µM (inactive)	> 100 µM (inactive)	> 100 µM (inactive)	> 100 µM (inactive)	> 100 µM (inactive)	> 100 µM (inactive)	> 100 µM (inactive)	> 100 µM (inactive)
COc1oc(C2C/C(=C/C(C)=C/C(C)=C/C(C)=C/c3ccc([N+](=O)[O-])cc3)CO2)c(C)c(=O)c1C (stereo not given)	< 0.01 µM (active)	10.3 µM (inactive)	11.1 µM (inactive)	1.74 µM (inactive)	0.344 µM (active)	5.64 µM (inactive)	7.28 µM (inactive)	5.2 µM (inactive)	3.5 µM (inactive)	5 µM (inactive)	6.95 µM (inactive)	< 0.01 µM (active)	9.1 µM (inactive)	15.8 µM (inactive)	6.89 µM (inactive)	12.5 µM (inactive)	15.9 µM (inactive)	1.26 µM (inactive)	< 0.01 µM (active)	1.58 µM (inactive)
Cc1ccc(N/N=C2\C3=C(CCC(C)(C)O3)C(=O)c3ccccc32)cc1	16.5 µM (inactive)	30.3 µM (inactive)	24.2 µM (inactive)	16 µM (inactive)	32.4 µM (inactive)	28 µM (inactive)	35.2 µM (inactive)	23.4 µM (inactive)	18.2 µM (inactive)	14.9 µM (inactive)	43.5 µM (inactive)	4.17 µM (inactive)	33.8 µM (inactive)	56.1 µM (inactive)	18.3 µM (inactive)	28.2 µM (inactive)	20.8 µM (inactive)	17.4 µM (inactive)	21.3 µM (inactive)	21.8 µM (inactive)
O=C(C1=C(C(=O)c2ccccc2)SC2(S1)C(C(=O)c1ccccc1)=C(C(=O)c1ccccc1)Sc1c2ssc1=O)c1ccccc1	9.51 µM (inactive)	67.5 µM (inactive)	67.6 µM (inactive)	30.5 µM (inactive)	26.7 µM (inactive)	31.1 µM (inactive)	27 µM (inactive)	22.4 µM (inactive)	36.7 µM (inactive)	22.4 µM (inactive)	> 100 µM (inactive)	43.6 µM (inactive)	22 µM (inactive)	78.9 µM (inactive)	17.2 µM (inactive)	> 100 µM (inactive)	24.6 µM (inactive)	31.5 µM (inactive)	82.4 µM (inactive)	29.8 µM (inactive)
O=C(O)C(CSC(c1ccccc1)(c1ccccc1)c1ccccc1)/N=C/c1cccs1 (stereo not given)	4.42 µM (inactive)	2.42 µM (inactive)	2.31 µM (inactive)	3.95 µM (inactive)	1.16 µM (inactive)	1.17 µM (inactive)	9.12 µM (inactive)	17.7 µM (inactive)	15.1 µM (inactive)	1.17 µM (inactive)	14.6 µM (inactive)	0.484 µM (active)	1.76 µM (inactive)	1.57 µM (inactive)	30.3 µM (inactive)	7.46 µM (inactive)	2.42 µM (inactive)	3.16 µM (inactive)	0.468 µM (active)	2.78 µM (inactive)
